Consider one compound from US20030170287A1, “Drug delivery systems for the prevention and treatment of vascular diseases” (priority 2002, published 2003).

Data set [1] deals with New Zealand White rabbit iliac arteries (balloon injury and stent). Kind of data set: Inhibition of restenosis at 28 days in the rabbit iliac stent model. In kind it is in vivo. The procedure: A.2 Inhibition of Restenosis at 28 Days in the Rabbit Iliac Stent Model
A combined angioplasty and stenting procedure is performed in New Zealand White rabbit iliac arteries. Iliac artery balloon injury is performed by inflating a 3.0 x 9.0 mm angioplasty balloon in the mid-portion of the artery followed by “pull-back” of the catheter for 1 balloon length. Balloon injury is repeated 2 times, and a 3.0×12 mm stent is deployed at 6 atm for 30 seconds in the iliac artery. Balloon injury and stent placement is then performed on the contralateral iliac artery in the same manner. A post-stent deployment angiogram is performed. All animals receive oral aspirin 40 mg/day daily as anti-platelet therapy and are fed standard low-cholesterol rabbit chow. Twenty-eight days after stenting, animals are anesthetized and euthanized and the arterial tree is perfused at 100 mmHg with lactated Ringer's for several minutes, then perfused with 10% formalin at 100 mmHg for 15 minutes. The vascular section between the distal aorta and the proximal femoral arteries is excised and cleaned of periadventitial tissue. The stented section of artery is embedded in plastic and sections are taken from the proximal, middle, and distal portions of each stent. All sections are stained with hematoxylin-eosin and Movat pentachrome stains. Computerized planimetry is performed to determine the area of the internal elastic lamina (IEL), external elastic lamina (EEL) and lumen. The neointima and neointimal thickness is measured both at and between the stent struts. The vessel area is measured as the area within the EEL. Data are expressed as mean±SEM. Statistical analysis of the histologic data is accomplished using analysis of variance (ANOVA) due to the fact that two stented arteries are measured per animal with a mean generated per animal. A P<0.05 is considered statistically significant.
A compound of formula I, e.g. 40-O-(2-hydroxyethyl)-rapamycin, is administered orally by gavage at a loading dose of 1.5 mg/kg one day prior to stenting, then dosed at 0.75 mg/kg/day from the day of stenting until day 27 post-stenting. In this model, the treatment with the compounds of formula I results in a marked reduction in the extent of restenotic lesion formation: for example, the treatment with 40-O-(2-hydroxyethyl)-rapamycin produces a significant (P<0.03) reduction in neointimal thickness (40% reduction), neointimal area (24% reduction), and percent arterial stenosis (26% reduction) with a significant 32% increase in lumen area. There is extensive neointimal formation in placebo-treated animals at 28 days, with the lesions consisting of abundant smooth muscle cells in proteoglycan/collagen matrix and apparent full endothelial healing.

The subject of data set [2] is dialysis patients with indwelling large bore catheter. The experiment in a line: Prevention or reduction of vascular access dysfunction after insertion of an indwelling catheter into the vein of a patient. In kind it is in vivo. The note with it: daily dose of 0.75 to 20 mg, 3 month treatment, observation period of 6 months. The procedure: A5. Prevention or Reduction of Vascular Access Dysfunction in Association with the Insertion of an Indwelling Catheter into the Vein of a Patient
One hundred fifty prospective dialysis patients, who undergo successful insertion of an indwelling, large bore catheter, into a vein are selected for the study. […] In addition, patients may also be given a calcium antagonist, nitrates and/or anti-platelet agents. These drugs are administered for 3 consecutive months following catheter insertion.

Data set [3] can be described thus: Release of 40-O-(2-hydroxyethyl)-rapamycin from coated stents. In kind it is physicochemical. As to conditions: PBS pH 7.4 or PEG/water 40/60 v/v, 37° C., solutions changed daily; stable = less than 10% of variation of the drug release. The method, then:
Four 2 cm pieces of coated stents as described above are placed into 100 ml of phosphate buffer solution (PBS) having a pH of 7.4. Another 4 pieces from each series are placed into 100 ml polyethylene glycol (PEG)/water solution (40/60 v/v, MW of PEG=400). The stent pieces are incubated at 37° C. in a shaker. The buffer and PEG solutions are changed daily and different assays are performed on the solution to determine the released 40-O-(2-hydroxyethyl)-rapamycin concentrations. Such assays can show a stable release of 40-O-(2-hydroxyethyl)-rapamycin from coated stents for more than 45 days. By the term “stable release of 40-O-(2-hydroxyethyl)-rapamycin” is meant less than 10% of variation of the drug release. Controlled release techniques used by a person skilled in the art allow an unexpected easy adaptation of the required drug release rate. Thus, by selecting appropriate amounts of reactants in the coating mixture it is possible to easily control the bioeffectiveness of the rapamycin or rapamycin derivastive coated stents.

The subject of data set [4] is ballooned carotid of Sprague Dawley rats. Kind of data set: Inhibition of restenosis at 14 days in the rat carotid stent model (perivascular local delivery). In kind it is in vivo, Sprague Dawley rat. The note with it: administered locally (perivascular, osmotic pump) at 10 to 200 μg/day. The procedure: A.3 Inhibition of Restenosis at 14 Days in the Rat Carotid Stent Model
Male Sprague Dawley rats weighing […] are housed individually and allowed to acclimate prior to surgery. All animals receive standard rat chow and water ad libitum. Group size is 12 animals per group.
The drug(s) administration is perivascular. A segment of ballooned carotid is encircled with a 1 cm length of silastic tubing (0.25 inch inside diameter, 0.47 inch outside diameter) to which is attached a catheter which feeds into an osmotic pump containing either compound or vehicle. This delivery system provides continuous, local delivery to the adventitia of the wrapped portion of vessel. Local drug(s) administration ranges between 5 μg and 10 mg, locally per day, depending on the solubility characteristics of the individual compounds. […]
Animals are killed at 14 days post-balloon injury. […] Animals are killed by administration of an overdose of ketamine and rompun, the osmotic pumps are recovered and the volume of remaining content is recorded to ensure that pump failure has not occurred.
Carotid arteries are excised and immersion fixed, then transferred to Ringer's solution. […] The intimal lesion area and the medial area are determined by measurement of the internal elastic lamina, the external elastic lamina and the vessel/lumen interface.

The test system of data set [5] is balloon injured rat carotid arteries. Kind of data set: Inhibition of late neointimal lesion formation in the 28 day rat carotid artery balloon injury model. The note with it: for percent inhibition of neointimal lesion formation: 28 days post-balloon injury. The data set is classed as in vivo. The method, then: A1. Inhibition of Late Neointimal Lesion Formation in the 28 Day Rat Carotid Artery Balloon Injury Model
Compounds of formula I are tested in the following rat model.
Rats are dosed orally with placebo or a compound of formula I. Daily dosing starts 3 days prior to surgery and continues for 31 days. Rat carotid arteries are balloon injured using a method described by Clowes et al. Lab. Invest. 1983;49;208-215. Following sacrifice at 28 days post-balloon injury, carotid arteries are removed and processed for histologic and morphometric evaluation. […] For example for 40-O-(2-hydroxyethyl)-rapamycin administered at 0.5, 1.0, and 2.0 mg/kg, the percent inhibition is similar at all three doses: inhibition is 31% at the lowest dose (0.5 mg/kg) and 39% at the highest dose (2.0 mg/kg). Compounds of formula I, e.g. 40-O-(2-hydroxyethyl)-rapamycin, have the beneficial effect to inhibit lesions at 4 weeks post-ballooning.

Where [6] appears, read: oral loading dose 1.5 mg/kg, then 0.75 mg/kg/day to day 27, 28 days after stenting, P<0.03.

Structures are written as SMILES.

Regarding `CO[C@H]1C[C@@H]2CC[C@@H](C)[C@@](O)(O2)C(=O)C(=O)N2CCCC[C@H]2C(=O)O[C@H]([C@H](C)C[C@@H]2CC[C@@H](OCCO)[C@H](OC)C2)CC(=O)[C@H](C)/C=C(\C)[C@@H](O)[C@@H](OC)C(=O)[C@H](C)C[C@H](C)/C=C/C=C/C=C/1C` [40-O-(2-hydroxyethyl)-rapamycin], in data set [1] (majority of arterial segments, 28 days after stenting), the “histology of the intima in arterial segments” value is recorded as “the intima is well healed”. Also, the “endothelialization of stented arteries (scanning electron microscopic analysis)” value in data set [1] (n=4 arteries, oral 1.5 mg/kg loading, 0.75 mg/kg/day, 28 days) amounted to 84%. Moreover, the “increase in lumen area” value in data set [1] (oral loading dose 1.5 mg/kg, then 0.75 mg/kg/day to day 27, 28 days after stenting) is 32%. In data set [1] (setting [6]), the “reduction in neointimal area” value is given as 24%, the “reduction in neointimal thickness” value is 40% and the “reduction in percent arterial stenosis” value is given as 26%. Further, the “prevention or reduction of vascular access dysfunction after catheter insertion” value in data set [2] is reported as “demonstrate the efficacy”. In data set [3], the “duration of stable release from coated stents” value is on record as “more than 45 days”. Further, the “neointimal lesion formation at 14 days post ballooning” value in data set [4] is given as “reduces neointimal lesion formation”. For the same compound, the “percent inhibition of neointimal lesion formation” value in data set [5] (0.5 mg/kg oral daily) worked out at 31%. In data set [5] (2.0 mg/kg oral daily), the “percent inhibition of neointimal lesion formation” value was 39%. The “neointimal lesion formation at 28 days following balloon injury” value in data set [5] (oral dose of from 0.5 to 2.0 mg/kg) is recorded as “significantly reduce neointimal lesion formation”.
